Assay results from US20080213410A1, “ANTI-HUMAN PAPILLOMAS VIRUS TOPICAL COMPOSITION” (priority 2007, published 2008).

System: human papillomavirus (HPV) genital warts
Test: 15 months treatment of 90 infected patients, number of recurrent warts (Example 1)
Assay type: in vivo
Text: The composition, to be applied topically or transdermally to the skin and mucous membranes, is of high interest because it triggers little or no side-effects, very little irritation, no restrictive length of application, no impact on non-infected skin, can heal surface and/or deep flesh warts and prevent the recurrence of outbreaks. The treatment consists in topically administering the composition to the HPV infected skin and mucous membranes of patients. Such physiological regions consists of, in particular, the skin of the penis, vulva (area outside the vagina), anus, scrotum, groin, or thigh and in the linings of the vagina, cervix, or rectum presenting the virus related warts. […] Two types of warts can be found in patients: acute or chronic warts. The first kind, the acute wart, can be treated by simply swiping the surface of the skin or mucous membrane with a swab, previously impregnated with the composition, and gently rubbing the skin in order to allow penetration of the composition in its deepest layers. The second kind is the chronic wart, which requires a more invasive type of treatment. Indeed, the treatment is either effected by applying to the skin or mucous surface to treat a transdermal patch, constantly and regularly diffusing the composition through the area it covers, or by using a microlet, which uses a needle rapidly piercing the skin and injecting the composition deeply in the flesh.
Posology: Application of the topical composition is effected 1 time per week through swiping of the region with a swab containing the composition in the case of an acute wart or through the use of a transdermal patch or microlet in the case of a chronic wart.
Results: Table 1 comprises the results of a 15 months treatment with the composition of the present invention on a total of 90 infected patients. Table 2 comprises the results of a 15 months treatment with liquid nitrogen on a total of 90 infected patients. The compiled data consists of the number of recurrent warts that had still developed after a 15 months treatment with either the cream of the present invention or with liquid nitrogen. These records represent direct evidence that the composition of the present invention is effective, the number of warts that had still reappeared after a 15 months long treatment of the intermittent lesion and inflammation being less important with the cream than with the liquid nitrogen. Indeed, 67% of patients treated with the composition of the present invention presented a low degree of infections after the 15 months treatment (1 to 2 recurrent warts) whereas only 13% of the patients treated with the liquid nitrogen presented similar results.

N#N [liquid nitrogen]
patients presenting a low degree of infections after the 15 months treatment (1 to 2 recurrent warts) (90 patients per treatment): 13% | Number of patients with 1 to 2 recurrent warts after a 15 months treatment (90 patients, 1 to 2 warts): 12 | Number of patients with 3 to 5 recurrent warts after a 15 months treatment (90 patients, 3 to 5 warts): 49 | Number of patients with 6 to 10 recurrent warts after a 15 months treatment (90 patients, 6 to 10 warts): 29
